Assay [1] has as its target benzodiazepine receptors. Nature of the assay: Affinity for benzodiazepine receptors: inhibition of specific 3H-flunitrazepam binding (Test 1). Particulars: 0.6×10^-9 mol 3H-flunitrazepam; membranes from the rear portion of the rat brain; read-out: Test 1: concentration which inhibited 50% of the specific binding of 3H-labelled flunitrazepam (IC50). As for the experimental part: The affinity of the active ingredients for the benzodiazepine receptors was measured using a radioactively labelled (^3 H) compound, flunitrazepam, in a modified version of the method of Squires et al (Nature, 1977, Vol. 266, p. 732). The values given in Table 2 below are the concentration (mol×10^-9) of the test compound which inhibited 50% of the specific binding of 0.6×10^-9 mol of ^3 H-labelled flunitrazepam in preparation of membranes from the rear portion of the brain in rats (IC50 values).

Assay [2] relates to benzodiazepine receptors. Nature of the assay: In vivo binding to benzodiazepine receptors (Test 2). As to conditions: ip. As for the experimental part:
Measurement of in vivo binding to benzodiazepine receptors was carried out according to the method described by Goeders at al., Life Sciences (1985) Vol. 37, p. 345.

Take `CN1Cc2c(C3OCCS3)ncn2-c2cccc(C(F)(F)F)c2C1=O` (stereo not drawn) [Example 4, 5,6-dihydro-5-methyl-3-(1,3-oxathiolan-2-yl)-7-trifluoromethyl-imidazo[1,5-a][1,4]benzodiazepine-6(4H)-one]: the IC50 at benzodiazepine receptors [1] amounted to 10 nM. Further, the “Test 2: ED50, in vivo binding to benzodiazepine receptors” value (shortened to “Test 2: ED50, in vivo binding”) in the assay with benzodiazepine receptors [2] stood at 0.08 mg/kg.
Turning to `CN1Cc2c(C3OCCO3)ncn2-c2cccc(C(F)(F)F)c2C1=O` [Example 3, 5,6-dihydro-3-(1,3-dioxolan-2-yl)-5-methyl-7-trifluoromethyl-imidazo[1,5-a][1,4]benzodiazepine-6(4H)-one], the IC50 on benzodiazepine receptors [1] stood at 73 nM. Further, the “Test 2: ED50, in vivo binding” value in the assay with benzodiazepine receptors [2] was found to be 0.09 mg/kg.
For `CN1Cc2c(C3SCCS3)ncn2-c2ccccc2C1=O` [Example 2, 5,6-dihydro-3-(1,3-dithiolan-2-yl)-5-methyl-imidazo[1,5-a][1,4]benzodiazepine-6(4H)-one], the IC50 on benzodiazepine receptors [1] is 94 nM. For the same molecule, the “Test 2: ED50, in vivo binding” value with benzodiazepine receptors [2] is 7.0 mg/kg.
Consider `CN1Cc2c(C3OCCS3)ncn2-c2ccccc2C1=O` (stereo not drawn) [Example 5, 5,6-dihydro-5-methyl-3-(1,3-oxathiolan-2-yl)-imidazo[1,5-a][1,4]benzodiazepine-6(4H)-one], for which the IC50 on benzodiazepine receptors [1] was determined as 339 nM. Also, the “Test 2: ED50, in vivo binding” value in the assay on benzodiazepine receptors [2] is listed as 0.8 mg/kg.
Regarding `CN1Cc2c(C3OCCS3)ncn2-c2cccc(F)c2C1=O` (stereo not drawn) [Example 6, 5,6-dihydro-7-fluoro-5-methyl-3-(1,3-oxathiolan-2-yl)-imidazo[1,5-a][1,4]benzodiazepine-6(4H)-one], the IC50 on benzodiazepine receptors [1] turned out to be 36 nM. Further, in the assay with benzodiazepine receptors [2], the “Test 2: ED50, in vivo binding” value came out at 0.22 mg/kg.
On to `CN1Cc2c(C3OCCO3)ncn2-c2ccccc2C1=O` [Example 1, 5,6-dihydro-3-(1,3-dioxolan-2-yl)-5-methyl-imidazo[1,5-a][1,4]benzodiazepine-6(4H)-one], for which the IC50 on benzodiazepine receptors [1] is 1080 nM. For the same molecule, the “Test 2: ED50, in vivo binding” value in the assay on benzodiazepine receptors [2] is 1.0 mg/kg.

The values above are taken from patent US5017574A, “Novel imidazobenzodiazepines” (Roussel Uclaf, priority 1989, dated 1991).
